The source of these data is patent US20100087534A1, “Use of a Photosensitizing Agent in the Treatment or Prevention of an Inflammation-Associated Disorder in the Gastrointestinal Tract of a Mammal” (priority 2005, published 2010).

Each structure is given as a SMILES string.

In one data set the test system is IFN-γ. The experiment in a line: IFN-γ expression index in colon of transfer colitis SCID mice (FIG. 2). It counts as in vivo. On the procedure: (§1) FIG. 2 represents the expression indices of the proinflammatory markers IFN-γ and TNF-α in untransfered mice, disease control group and PDT group (15 mg/kg of δ-ALA, 10 J/cm^2).
(§2) Typically, the expression index of each pro-inflammatory marker of interest is calculated (normalized number of mRNA copies of each manipulated mice/normalized number of mRNA copies of the unmanipulated mice). The results are given as mean values of the expression index (unmanipulated mean mice index=1). […]
(§3) The third portion was used for measuring the expression of the molecules involved in immune and inflammatory phenomenons in the colonic mucosa (cytokines, chemokines). […] Quantification of reverse transcripted messenger RNA for GAPDH, the inducible nitric oxide synthetase (iNOS), interferon-gamma (IFN-γ), interleukin-1 receptor antagonist (IL1-Ra), tumor necrosis factor alpha (TNF-α), interleukin 6 (IL-6), tumor growth factor beta (TGF-13) and interleukin10 (IL-10) was performed by quantitative real-time PCR in a BioRad Real-time PCR iCycler using specific pairs of primers and the green fluorescence dye SYBR—Green®. GAPDH was used to normalize quantifications within each individual sample (normalization of the number of mRNA copies for the gene of interest/1 million mRNA copies of the GAPDH gene of the investigated mouse). […]

In the next data set the test system is TNF-α. Put plainly: TNF-α expression index in colon of transfer colitis SCID mice (FIG. 2). In kind it is in vivo. How it is done: as §1, §2, §3
The nature of data set [1]: Safety of colonoscopy and low/high dose PDT in wild type BALB/c mice.
Setting [2] is: 15 mg/kg δ-ALA, 10 J/cm^2, versus disease control group (FIG. 2).
Where [3] appears, read: 10 J/cm^2, 15 mg/kg δ-ALA, compared to "colonoscopy" mice, deduced from FIG. 2.

For the compound `NCC(=O)CCC(=O)O` [δ-ALA, 5-aminolevulinic acid], the “expression index IFN-γ after low dose PDT” value in the data set on IFN-γ (setting [2]) is reported as “decreased significantly”. Further, the “decrease of the expression of pro-inflammatory marker IFN-γ” value in the data set with IFN-γ (setting [3]) worked out at 73%. In the data set with TNF-α (setting [2]), the “expression index TNF-α after low dose PDT” value is given as “decreased significantly”. For the same compound, the “decrease of the expression of pro-inflammatory marker TNF-α” value with TNF-α (setting [3]) stood at 63%. Moreover, the “signs of skin phototoxicity” value in data set [1] (all experimental groups) is reported as “no signs of skin phototoxicity were observed”. Also, the “histology of colon (microscopic changes)” value in data set [1] (all groups other than high dose PDT) is on record as “no microscopic changes were observed”. Further, the “exterior aspect of mice (quality of life)” value in data set [1] (all groups other than high dose PDT (low dose PDT, δ-ALA only), 74 h observation) is reported as “the exterior aspect of mice remained unchanged”. Moreover, in data set [1] (any of the experimental conditions, 0 and 74 h), the “changes in the blood formula” value is reported as “No significant changes in the blood formula were seen”. Further, the “inflammatory cells by anti-MAC immunostaining” value in data set [1] (high dose PDT, compared to naïve mice) is given as “an increase of inflammatory cells was observed”; in data set [1] (low dose PDT), “did not lead to an increase in inflammatory cells”. Further, in data set [1] (low dose PDT, 74 hours), the “macroscopic aspect of colon” value is “the colon appeared macroscopically normal”.
